Experimental data taken from patent US4246273A, “1,5-Disubstituted imidazolid-4-ones” (Beecham Group Limited, priority 1978, dated 1981).

System: indomethacin induced gastric damage
Experiment: Anti-ulcer activity: inhibition of indomethacin induced gastric damage in the rat
Type: in vivo
Conditions: 100 mg/kg orally, 30 minutes prior to indomethacin 15 mg/kg s.c.; score scale 1-9 after 4 hours; vehicle control 3.71 ± 0.80; P<0.01 (Mann Witney test)
Protocol: Anti-ulcer activity was assessed by the inhibition of indomethacin induced gastric damage in the rat according to the method of Eleghe (1974) Israeli J. Med. Sci. 10. 1451. Rats were starved overnight and given 15 mg/kg indomethacin subcutaneously and sacrificed 4 hours later. Stomachs were reflated with n. saline, cut along the greater curvature pinned out and scored for gastric damage by the following system:
Score 1-3--according to degree of erythema and slight haemorrhage.
Score 4-6--according to degree of muscosal erosion.
Score 7-9--according to depth of gastric damage.
Groups of 7 rats were used for each treatment and the test compound or vehicle were administered 30 minutes prior to giving the indomethacin. Dose of test compound was 100 mg/kg orally and control groups receiving vehicle only were obtained using the above scoring system and the Mann Witney test applied for significance of difference between the values obtained with the treatments.

## CCCCCCC(C)(O)CCN1CN(C)C(=O)C1CCCCCCC(=O)OC (stereo not shown) [Compound 6, 1-(3'-hydroxy-3'-methyl-n-nonyl)-3-methyl-5-(6"-methoxycarbonyl-n-hexyl)-4-imidazolidone]
  Test Compound Mean Score ± S.E. of Mean (gastric damage): 0.71 ± 0.42
